Data set [1] deals with inositol monophosphatase 2 (printed IMAP2). The conditions noted are these: no reference printed with the statement; cited from earlier work. The text has this:
Increased SOCE has previously been described in CF neutrophils and may be causal for CF neutrophil hyperactivity. However, Orai1’s involvement in SOCE in neutrophils has not been extensively studied, and the impact of CFTR modulator therapies on Orai1/SOCE is not well-understood. To globally assess the impact of ETI on CF neutrophils, we first performed a proteomic analysis. This analysis identified multiple proteins that were differentially expressed in CF-derived neutrophils relative to neutrophils from non-CF participants, even though the majority of pwCF in this part of the study ha ...

The subject of data set [2] is SOCE/Orai1 in non-CF peripheral blood neutrophils. The experiment in a line: Fluo-4 Ca2+ assay, global thapsigargin-stimulated Ca2+ response (SOCE), non-CF neutrophils. In kind it is cell-based, human. The conditions noted are these: 1 μM thapsigargin. Here is the method:
(§1) Neutrophils were immediately isolated by negative selection from deidentified blood samples using an EasySep human neutrophil isolation kit (Stem Cell Technologies) as described. Cytosolic Ca^2+ was measured using Fluo-4 as described. Protein lysate from isolated blood neutrophils was characterized by liquid chromatography with tandem mass spectrometry (LC-MS/MS) as described. Degranulation products in media were quantified by Luminex assay using a custom Bio-Plex human kit (BioRad) per the manufacturer’s protocol […]. Detailed methods for all experiments and measurements are provided in an online data supplement.
(§2) Isolated neutrophils were incubated with peptide or vehicle control for 3 h. For the final hour of treatment, cells were loaded with Fluo-4 direct (Thermofisher) for 45 min at 37°C and 15 min at room temperature as described.
(§3) Fluo-4 Ca^2+ assays. Isolated neutrophils were incubated with peptide or vehicle control for 3 h. For the final hour of treatment, cells were loaded with Fluo-4 direct (Thermofisher) for 45 min at 37°C and 15 min at room temperature. For global Ca^2+ measurements, baseline fluorescent readings were made for 2 min (1 read every 30 s) using a Tecan Infinite M1000 plate reader (ex 494 em 516 nm, bandwidth 5 nm) before thapsigargin (Sigma-Aldrich) was added and the change in emission was recorded for 10 min (1 read every 30 s). To isolate phases of store operated Ca^2+ entry, cells underwent 3 rounds of centrifugation and resuspension in Ca^2+-free Ringer’s solution to remove extracellular Ca^2+. Baseline fluo-4 fluorescence was read for 2 min before cell were stimulated with thapsigargin (Tocris). Reads continued for ~5 min before 1.2 mM Ca^2+ was added to the extracellular solution and SOCE was measured for ~10 mins. For analysis, all fluo-4 fluorescence reads are normalized to baseline.

The subject of data set [3] is SOCE/Orai1 in CF peripheral blood neutrophils. The experiment in a line: Fluo-4 Ca2+ assay, global thapsigargin-stimulated Ca2+ response (SOCE), CF neutrophils. The conditions noted are these: CF, 1 μM thapsigargin. In kind it is cell-based, human. Here is the method:
as §1, §2, §3

The test system of another data set is SOCE in CF neutrophils. The conditions noted are these: in vitro CFTR potentiation; ref [12]; cited from earlier work. From the text:
We have previously reported that Ca^2+ signaling is influenced by estrogen in pwCF airways. […] Circulating neutrophil levels fluctuate during the menstrual cycle and sex-specific differences in neutrophil function have previously been described. It may have been that all our female participants had low circulating estrogen levels at time of sample, or that SOCE in neutrophils is less-estrogen sensitive than SOCE in airway epithelia. Importantly, most CF participants were taking CFTR modu ...

For the next data set, the system named is CF neutrophils. The conditions noted are these: ex vivo treatment; ref [12]; cited from earlier work. From the text:
Since SPLUNC1 is rapidly degraded ...

A further data set deals with SOCE, Orai1 and STIM1. The conditions noted are these: ref [49]; cited from earlier work.
Data set [4] deals with Ca2+ influx in non-CF neutrophils. The experiment in a line: Fluo-4 Ca2+ influx across the plasma membrane, non-CF neutrophils. The conditions noted are these: thapsigargin 1 μM, regardless of genotype. In kind it is cell-based, human. How it is done: as §2
(§4) Fig. 3. ELD607 inhibits SOCE in non-CF and CF neutrophils. (A) and (B) Mean changes in fluo-4 fluorescence as a marker of cytoplasmic Ca^2+ levels in non-CF and CF neutrophils respectively before and after stimulation with 1 μM thapsigargin (Tg). Before stimulation, neutrophils were exposed to vehicle (0.1% DMSO in PBS), 10 μM ELD607 or scrambled peptide (control) for 3 h. N = 10 non-CF and 21 CF donors. Stats show ELD607 vs vehicle or scrambled peptide based on color. (C-F) Isolation of ER Ca^2+ release vs Ca^2+ influx across the plasma membrane in non-CF and CF Neutrophils. Neutrophils were stimulated with thapsigargin (1 μM) in the absence of extracellular Ca^2+ to allow the release of Ca^2+ stores to be measured. Extracellular Ca^2+ was then returned so that extracellular Ca^2+ influx could be measured. (C) Mean fold change in Fluo-4 fluorescence during ER store release in non-CF and CF neutrophils. […] (E) Mean fold change in fluo-4 fluorescence during Ca^2+ influx in non-CF and CF neutrophils. […]
(§5) SOCE has 2 phases: release of Ca^2+ from ER stores and Ca^2+ influx from the extracellular space via Ca^2+ channels such as Orai1. […] Once the stores had emptied, extracellular Ca^2+ was reintroduced and Ca^2+ influx was measured (Fig. 3C–F).
(§6) Fluo-4 Ca^2+ assays. […] For global Ca^2+ measurements, baseline fluorescent readings were made for 2 min (1 read every 30 s) using a Tecan Infinite M1000 plate reader (ex 494 em 516 nm, bandwidth 5 nm) before thapsigargin (Sigma-Aldrich) was added and the change in emission was recorded for 10 min (1 read every 30 s). […] Baseline fluo-4 fluorescence was read for 2 min before cell were stimulated with thapsigargin (Tocris). Reads continued for ~5 min before 1.2 mM Ca^2+ was added to the extracellular solution and SOCE was measured for ~10 mins. For analysis, all fluo-4 fluorescence reads are normalized to baseline.

The test system of data set [5] is Ca2+ influx in CF neutrophils. The experiment in a line: Fluo-4 Ca2+ influx across the plasma membrane, CF neutrophils. In kind it is cell-based, human. The conditions noted are these: thapsigargin 1 μM, regardless of genotype. Here is the method: as §2, §4, §5, §6
In a further data set the test system is neutrophil elastase. The conditions noted are these: neutrophil elastase; ref [20]; cited from earlier work.

As to `[Li]` [lithium], in data set [1], the “effect of IMPA2 inhibition on inositol phosphate” value is reported as “cellular accumulation of inositol phosphate”.

Regarding “VIRGINDMHVL [scrambled ELD607, scrambled version of ELD607 (negative control peptide)]”, the “inhibition of SOCE (global Ca2+ response)” value is listed as “no effect on SOCE in either group” in [2] (10 μM peptide, 3 h pre-treatment, N = 10 donors) and “no effect on SOCE in either group” in data set [3] (10 μM peptide, 3 h pre-treatment, Fluo-4, N = 21 donors).

On to `CC(C)(C)c1cc(C(C)(C)C)c(NC(=O)c2c[nH]c3ccccc3c2=O)cc1O` [Kalydeco], for which the “SOCE and bacterial killing of CF neutrophils” value with SOCE in CF neutrophils is “sufficient to normalize SOCE and CF neutrophil bacterial killing”. Further, the “bacterial killing by CF neutrophils” value with CF neutrophils is reported as “improved”.

With `NCCOB(c1ccccc1)c1ccccc1` [2-aminoethoxydiphenyl borate], the “inhibition of SOCE, Orai1 and STIM1” value in the data set with SOCE, Orai1 and STIM1 was “broad spectrum SOCE antagonist that also inhibits Orai1 and STIM1”.

Turning to `C/C=C(/C)C(=O)O[C@H]1C(C)=C2[C@H]([C@@H]1OC(=O)CCCCCCC)[C@@](C)(OC(C)=O)C[C@H](OC(=O)CCC)[C@@]1(O)[C@H]2OC(=O)[C@@]1(C)O` [thapsigargin], the “rate of activation (slope) of cytoplasmic Ca2+ response” value is listed as 0.033 ± 0.012 in data set [2] (vs CF p<0.001) and 0.085 ± 0.009 in data set [3] (Fluo-4, vs non-CF p<0.001). Besides, the “increase in cytoplasmic Ca2+ vs non-CF” value in [3] (n = 10 non-CF, 21 CF) is “significantly greater increases in cytoplasmic Ca^2+ than non-CF controls”. In addition, the “Ca2+ influx relative to ER Ca2+ release, non-CF” value in data set [4] was ~ 10 fold. The “Ca2+ influx relative to ER Ca2+ release, CF” value in data set [5] is given as ~ 10 fold.

B1: SPLUNC1: short palate lung and nasal epithelial clone 1, endogenous protein (protein, UniProt Q9NP55 20-256, looked up)
BPI fold-containing family A …: QFGGLPVPLDQTLPLNVNPALPLSPTGLAGSLTNALSNGLLSGGLLGILENLPLLDILKPGGGTSGGLLGGLLGKVTSVIPGLNNIIDIKVTDPQLLELGLVQSPDGHRLYVTIPLGIKLQVNTPLVGASLLRLAVKLDITAEILAVRDKQERIHLVLGDCTHSPGSLQISLLDGLGPLPIQGLLDSLTGILNKVLPELVQGNVCPLVNEVLRGLDITLVHDIVNMLIHGLQFVIKV
Take B1: the “degradation by neutrophil elastase” value in the data set on neutrophil elastase was “rapidly degraded by neutrophil elastase”.

The values above are taken from paper PMC12998938, “Neutrophil store-operated Ca^2+ entry: A correctable biomarker of cystic fibrosis lung disease progression” (Journal of cystic fibrosis : official journal of the …, 2025).
